Assay results published in ChEMBL document CHEMBL1130493, “Dimeric aminoglycosides: Design, synthesis and RNA binding” (Bioorg Med Chem Lett, 1997).

Assays:
[1] = Compound was tested for the pseudo first-order rate constants for the inhibition of the cleavage step (k2) of the hammerhead ribozyme at a concentration of 10 uM
[2] = Compound was tested for the pseudo first-order rate constants for the inhibition of the cleavage step (k2) of the hammerhead ribozyme at a concentration of 1 uM
[3] = Compound was tested for the pseudo first-order rate constants for the inhibition of the cleavage step (k2) of the hammerhead ribozyme at a concentration of 100 uM; not determined at this concentration
[4] = Compound was tested for the pseudo first-order rate constants for the inhibition of the cleavage step (k2) of the hammerhead ribozyme at a concentration of 100 uM; too active and complete inhibition is observed
[5] = Compound was tested for the pseudo first-order rate constants for the inhibition of the cleavage step (k2) of the hammerhead ribozyme at a concentration of 100 uM
[6] = Compound was tested for the pseudo first-order rate constants for the inhibition of the cleavage step (k2) of the hammerhead ribozyme at a concentration of 100 uM; too active and complete inhibition is observed; remark: listed apart in the source
[7] = Compound was tested for the pseudo first-order rate constants for the inhibition of the cleavage step (k2) of the hammerhead ribozyme at a concentration of 1 uM; not determined at this concentration

K2 [1] | K2 [2] | K2 [3] | K2 [5] | K2 [7] | Structure (SMILES) | K2 [4] | K2 [6]
0.008 min⁻¹ | 0.046 min⁻¹ |  |  |  | NCC1O[C@H](O[C@H]2[C@@H](O)[C@H](O[C@H]3[C@H](O)[C@@H](N)C[C@@H](N)[C@@H]3O[C@H]3O[C@H](CN)[C@@H](O)[C@H](O)[C@H]3N)O[C@@H]2CSCCOCCSSCCOCCSC[C@H]2O[C@H](O[C@@H]3[C@@H](O)[C@H](O[C@H]4O[C@H](CN)[C@@H](O)C[C@H]4N)[C@@H](N)C[C@H]3N)[C@H](O)[C@@H](N)[C@@H]2O)[C@H](N)[C@@H](O)[C@@H]1O (stereo partly specified) |  | 
0.003 min⁻¹ | 0.041 min⁻¹ | No inhibition |  |  | NCC1O[C@H](O[C@H]2[C@@H](O)[C@H](O[C@H]3[C@H](O)[C@@H](N)C[C@@H](N)[C@@H]3O[C@H]3O[C@H](CN)[C@@H](O)[C@H](O)[C@H]3N)O[C@@H]2CSCCOCCSSCCOCCSC[C@H]2O[C@@H](O[C@H]3[C@H](O)[C@@H](N)C[C@@H](N)[C@@H]3O[C@H]3O[C@H](CN)[C@@H](O)[C@H](O)[C@H]3N)[C@H](O)[C@@H]2O[C@@H]2OC(CN)[C@H](O)[C@@H](O)[C@@H]2N)[C@H](N)[C@@H](O)[C@@H]1O (stereo partly specified) |  | 
0.014 min⁻¹ |  |  |  |  | NC[C@H]1O[C@H](O[C@H]2[C@H](O)[C@@H](O[C@H]3O[C@H](CSCCOCCSSCCOCCSC[C@H]4O[C@H](O[C@@H]5[C@@H](O)[C@H](O[C@H]6O[C@H](CN)[C@@H](O)C[C@H]6N)[C@@H](N)C[C@H]5N)[C@H](O)[C@@H](N)[C@@H]4O)[C@@H](O)[C@H](N)[C@H]3O)[C@H](N)C[C@@H]2N)[C@H](O)[C@@H](O)[C@@H]1O | Too active and complete inhibition is observed | 
0.017 min⁻¹ |  |  |  |  | NC[C@H]1O[C@H](O[C@H]2[C@H](O)[C@@H](O[C@H]3O[C@H](CSCCOCCSSCCOCCSC[C@H]4O[C@H](O[C@@H]5[C@@H](O)[C@H](O[C@H]6O[C@H](CN)[C@@H](O)[C@H](O)[C@H]6O)[C@@H](N)C[C@H]5N)[C@H](O)[C@@H](N)[C@@H]4O)[C@@H](O)[C@H](N)[C@H]3O)[C@H](N)C[C@@H]2N)[C@H](O)[C@@H](O)[C@@H]1O | Too active and complete inhibition is observed | 
0.051 min⁻¹ |  |  | 0.012 min⁻¹ |  | NC[C@H]1OC(O[C@H]2[C@H](O)[C@@H](OC3O[C@H](CO)[C@@H](O)[C@H](N)[C@H]3O)[C@H](N)C[C@@H]2N)[C@H](N)C[C@@H]1O (single isomer, unassigned) [TOBRAMYCIN] | Too active and complete inhibition is observed | 
0.018 min⁻¹ | 0.062 min⁻¹ | No inhibition |  |  | NC[C@@H]1O[C@H](O[C@H]2[C@@H](O)[C@H](O[C@@H]3[C@@H](O)[C@H](N)C[C@H](N)[C@H]3O[C@H]3O[C@H](CN)[C@@H](O)[C@H](O)[C@H]3N)O[C@@H]2CO)[C@H](N)[C@@H](O)[C@@H]1O [FRAMYCETIN] |  | 
 |  |  | 0.058 min⁻¹ |  | NC[C@H]1O[C@H](O[C@H]2[C@H](O)[C@@H](O[C@H]3O[C@H](CO)[C@@H](O)[C@H](N)[C@H]3O)[C@H](N)C[C@@H]2N)[C@H](O)[C@@H](O)[C@@H]1O [KANAMYCIN A] | Too active and complete inhibition is observed | Too active and complete inhibition is observed
0.011 min⁻¹ |  |  |  | No inhibition | NC[C@H]1O[C@H](O[C@H]2[C@H](O)[C@@H](O[C@H]3O[C@H](CSCCOCCSSCCOCCSC[C@H]4O[C@H](O[C@@H]5[C@@H](O)[C@H](O[C@H]6O[C@H](CN)[C@@H](O)C[C@H]6N)[C@@H](N)C[C@H]5N)[C@H](O)[C@@H](N)[C@@H]4O)[C@@H](O)[C@H](N)[C@H]3O)[C@H](N)C[C@@H]2N)[C@H](N)C[C@@H]1O [Tobramycin-Tobramycin] | Too active and complete inhibition is observed | 
